Measurements: US6900344B2, “Method of preparing alkylated salicylamides via a dicarboxylate intermediate” (Emisphere Technologies, Inc., priority 2000, dated 2005)

Assay: solubility in DMAC
Details: in DMAC (dimethylacetamide)

- solubility: about 30%
Compound: O=c1[nH]c(=O)c2ccccc2o1 [carsalam, 2H-1,3-benzoxazine-2,4(3H)-dione]
